Reference: ChEMBL document CHEMBL1201862, “PubChem BioAssay data set” (2004)
The source made the active and inactive calls. For most assays here, no stated cut-off is given here; in the data, actives have a measured EC50 and inactives only a lower limit.

What was measured:
BJ [1] = test: cytotoxicity toward Ras-transformed BJeLR fibroblasts, dose response, cell-based, alamar blue fluorescence, cherrypicked samples (AID 2631); format: functional; conditions: Homo sapiens;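 further: confirmatory dose-response assay in RAS-dependent BJ fibroblasts engineered with TERT, LT and ST, with cytotoxicity read by fluorescence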
Beta-galactosidase = Beta-galactosidase (Escherichia coli, UniProt Q8VNN2); test: PubChem AID 485352; format: functional
[2] = test system: Streptococcus sp. 'group A'; test: growth inhibition of control SK(-) GAS strain, dose response, counter-screen for streptokinase expression inhibitor project, luminescence, kanamycin, BacTiterGlo, confirmation (AID 1900); format: functional, organism-based
[3] = cytotoxicity toward DRD oncogenic fibroblasts, dose response, cell-based, non-viral oncogenic, luminescence (AID 1934); format: functional; conditions: Homo sapiens
Streptokinase A = molecular target: T1, Streptokinase A (Streptococcus pyogenes serotype M1, UniProt P10520); test: S. pyogenes streptokinase expression inhibitors, potency, dose response, plasminogen activation absorbance, OD405 (AID 1914); format: functional, Streptococcus pyogenes M1 GAS;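 further: secreted streptokinase activity via plasminogen activation per viability signal from cell pellet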
T1 sequence (P10520 whole entry): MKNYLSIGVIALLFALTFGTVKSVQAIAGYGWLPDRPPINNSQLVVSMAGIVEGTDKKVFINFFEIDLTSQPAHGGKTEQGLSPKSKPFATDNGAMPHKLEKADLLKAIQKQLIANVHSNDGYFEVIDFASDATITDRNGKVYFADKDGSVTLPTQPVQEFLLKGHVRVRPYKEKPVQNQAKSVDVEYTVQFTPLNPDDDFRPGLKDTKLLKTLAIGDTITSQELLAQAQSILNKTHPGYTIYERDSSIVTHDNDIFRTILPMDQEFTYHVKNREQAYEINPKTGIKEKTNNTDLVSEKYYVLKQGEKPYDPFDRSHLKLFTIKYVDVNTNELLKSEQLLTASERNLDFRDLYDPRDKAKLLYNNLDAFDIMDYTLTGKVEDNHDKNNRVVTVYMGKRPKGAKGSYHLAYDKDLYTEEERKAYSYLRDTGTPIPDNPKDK

[4] = cytotoxicity in HEK-293T cells, dose response, cytotoxicity control for TCR NF-kB inhibitor project, luminescence, T-cell screen hits (AID 489026); format: functional, cell-based;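 further: cells exposed to compound about 14 hours before the viability readout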
BJ [5] = test: cytotoxicity toward BJ-TERT-LT-ST fibroblasts, dose response, cell-based, RAS-independent, luminescence (AID 1935); format: functional; conditions: Homo sapiens;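 further: BJ fibroblasts immortalized with TERT plus LT and ST oncogenes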
[6] = HepG2 cell cytotoxicity, dose response, cytotoxicity control, ATP luminescence, cherry-pick, activator set 2 (AID 1053143); format: functional, cell-based
Streptococcus = test: Group A Streptococcus viability loss, dose response, counter-screen for streptokinase expression inhibitor project, luminescence, BacTiterGlo (AID 1915); format: functional, organism-based;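 further: potency for reduction of bacterial viability or growth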
BJ [7] = test: cells; format: functional, cell-based; conditions: Homo sapiens
BJ [8] = test: cytotoxicity toward BJ-TERT fibroblasts, dose response, cell-based, RAS-independent, luminescence (AID 1933); format: functional; conditions: Homo sapiens
[9] = molecular target: T2, Type-1 angiotensin II receptor (Homo sapiens, UniProt P30556); test: AT1 receptor antagonists, dose response, selectivity assay for APJ receptor antagonist project, cell-based, uHTS hits (AID 463214); format: functional;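 further: antagonist potency against angiotensin II stimulated AT1 response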
T2 sequence (P30556 whole entry): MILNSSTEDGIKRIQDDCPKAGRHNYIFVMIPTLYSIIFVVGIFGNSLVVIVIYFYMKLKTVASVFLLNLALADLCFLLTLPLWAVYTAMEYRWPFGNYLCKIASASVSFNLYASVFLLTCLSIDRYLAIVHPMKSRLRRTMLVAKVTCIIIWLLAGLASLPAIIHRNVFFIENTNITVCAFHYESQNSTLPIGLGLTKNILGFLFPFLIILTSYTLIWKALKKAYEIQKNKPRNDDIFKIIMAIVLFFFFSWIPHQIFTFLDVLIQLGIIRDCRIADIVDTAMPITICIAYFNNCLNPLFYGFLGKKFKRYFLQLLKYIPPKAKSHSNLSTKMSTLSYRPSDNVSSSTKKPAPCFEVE

Phospholipase D1 = molecular target: T3, Phospholipase D1 (Homo sapiens, UniProt Q13393); test: PLD1 inhibitor potency in cells, dose response (AID 602151); format: functional;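 further: cellular PLD1 assay in Calu-1 cells stimulated with PMA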
T3 sequence (Q13393 whole entry): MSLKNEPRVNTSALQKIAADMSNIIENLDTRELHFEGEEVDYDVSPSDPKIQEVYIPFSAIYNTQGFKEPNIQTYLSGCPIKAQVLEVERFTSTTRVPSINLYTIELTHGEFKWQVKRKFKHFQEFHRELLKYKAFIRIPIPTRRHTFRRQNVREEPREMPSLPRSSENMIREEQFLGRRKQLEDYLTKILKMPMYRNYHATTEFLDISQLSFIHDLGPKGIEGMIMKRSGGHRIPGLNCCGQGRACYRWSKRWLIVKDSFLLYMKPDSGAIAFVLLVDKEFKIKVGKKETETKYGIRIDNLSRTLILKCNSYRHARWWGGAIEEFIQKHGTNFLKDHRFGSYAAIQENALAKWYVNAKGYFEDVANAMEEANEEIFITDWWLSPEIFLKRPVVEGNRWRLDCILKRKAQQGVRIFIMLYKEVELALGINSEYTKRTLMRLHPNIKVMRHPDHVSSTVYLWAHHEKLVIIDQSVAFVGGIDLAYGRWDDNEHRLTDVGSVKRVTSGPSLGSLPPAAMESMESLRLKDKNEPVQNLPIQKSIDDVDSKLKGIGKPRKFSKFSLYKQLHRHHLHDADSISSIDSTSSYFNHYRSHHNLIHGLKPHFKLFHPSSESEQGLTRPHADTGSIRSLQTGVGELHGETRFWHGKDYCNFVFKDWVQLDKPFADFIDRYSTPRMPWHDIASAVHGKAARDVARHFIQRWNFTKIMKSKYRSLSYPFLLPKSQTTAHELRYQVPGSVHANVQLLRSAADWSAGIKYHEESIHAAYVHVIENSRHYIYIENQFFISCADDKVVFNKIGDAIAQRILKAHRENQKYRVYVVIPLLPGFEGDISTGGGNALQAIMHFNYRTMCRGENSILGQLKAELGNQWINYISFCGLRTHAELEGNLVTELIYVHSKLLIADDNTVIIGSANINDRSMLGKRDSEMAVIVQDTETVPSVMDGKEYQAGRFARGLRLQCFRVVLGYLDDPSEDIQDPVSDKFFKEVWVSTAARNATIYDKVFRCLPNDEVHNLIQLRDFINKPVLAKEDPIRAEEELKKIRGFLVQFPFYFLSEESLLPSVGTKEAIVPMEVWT

Phospholipase D2 = Phospholipase D2 (Homo sapiens, UniProt O14939); test: PLD2 inhibitor potency in cells, dose response (AID 602147); format: functional;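 further: cellular assay in HEK293 cells overexpressing GFP-tagged PLD2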
Sequence of Phospholipase D2 (O14939 whole entry): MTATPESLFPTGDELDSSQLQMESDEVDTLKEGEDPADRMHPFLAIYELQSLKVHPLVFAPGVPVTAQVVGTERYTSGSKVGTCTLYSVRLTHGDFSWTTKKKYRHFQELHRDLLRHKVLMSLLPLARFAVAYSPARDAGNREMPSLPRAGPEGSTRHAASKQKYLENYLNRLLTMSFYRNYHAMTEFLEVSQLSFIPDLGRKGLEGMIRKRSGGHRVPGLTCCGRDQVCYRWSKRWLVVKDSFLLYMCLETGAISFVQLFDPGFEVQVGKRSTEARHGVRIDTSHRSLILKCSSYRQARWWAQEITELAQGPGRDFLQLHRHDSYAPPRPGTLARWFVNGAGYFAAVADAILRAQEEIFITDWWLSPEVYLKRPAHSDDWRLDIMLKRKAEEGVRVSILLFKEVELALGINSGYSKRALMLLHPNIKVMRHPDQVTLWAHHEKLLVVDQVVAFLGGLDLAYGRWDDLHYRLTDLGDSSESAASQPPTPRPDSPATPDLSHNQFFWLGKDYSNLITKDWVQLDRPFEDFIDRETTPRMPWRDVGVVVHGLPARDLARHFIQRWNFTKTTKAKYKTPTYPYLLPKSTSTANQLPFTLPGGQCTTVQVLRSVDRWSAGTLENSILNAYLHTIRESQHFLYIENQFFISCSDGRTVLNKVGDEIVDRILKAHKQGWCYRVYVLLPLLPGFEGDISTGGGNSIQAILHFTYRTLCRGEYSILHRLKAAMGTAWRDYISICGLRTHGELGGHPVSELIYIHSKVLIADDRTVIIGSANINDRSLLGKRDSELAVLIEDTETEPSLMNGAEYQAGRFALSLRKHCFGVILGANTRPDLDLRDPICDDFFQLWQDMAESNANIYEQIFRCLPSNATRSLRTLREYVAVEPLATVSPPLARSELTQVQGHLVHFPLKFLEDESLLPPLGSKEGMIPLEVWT

Sequence of Beta-galactosidase (Q8VNN2 whole entry): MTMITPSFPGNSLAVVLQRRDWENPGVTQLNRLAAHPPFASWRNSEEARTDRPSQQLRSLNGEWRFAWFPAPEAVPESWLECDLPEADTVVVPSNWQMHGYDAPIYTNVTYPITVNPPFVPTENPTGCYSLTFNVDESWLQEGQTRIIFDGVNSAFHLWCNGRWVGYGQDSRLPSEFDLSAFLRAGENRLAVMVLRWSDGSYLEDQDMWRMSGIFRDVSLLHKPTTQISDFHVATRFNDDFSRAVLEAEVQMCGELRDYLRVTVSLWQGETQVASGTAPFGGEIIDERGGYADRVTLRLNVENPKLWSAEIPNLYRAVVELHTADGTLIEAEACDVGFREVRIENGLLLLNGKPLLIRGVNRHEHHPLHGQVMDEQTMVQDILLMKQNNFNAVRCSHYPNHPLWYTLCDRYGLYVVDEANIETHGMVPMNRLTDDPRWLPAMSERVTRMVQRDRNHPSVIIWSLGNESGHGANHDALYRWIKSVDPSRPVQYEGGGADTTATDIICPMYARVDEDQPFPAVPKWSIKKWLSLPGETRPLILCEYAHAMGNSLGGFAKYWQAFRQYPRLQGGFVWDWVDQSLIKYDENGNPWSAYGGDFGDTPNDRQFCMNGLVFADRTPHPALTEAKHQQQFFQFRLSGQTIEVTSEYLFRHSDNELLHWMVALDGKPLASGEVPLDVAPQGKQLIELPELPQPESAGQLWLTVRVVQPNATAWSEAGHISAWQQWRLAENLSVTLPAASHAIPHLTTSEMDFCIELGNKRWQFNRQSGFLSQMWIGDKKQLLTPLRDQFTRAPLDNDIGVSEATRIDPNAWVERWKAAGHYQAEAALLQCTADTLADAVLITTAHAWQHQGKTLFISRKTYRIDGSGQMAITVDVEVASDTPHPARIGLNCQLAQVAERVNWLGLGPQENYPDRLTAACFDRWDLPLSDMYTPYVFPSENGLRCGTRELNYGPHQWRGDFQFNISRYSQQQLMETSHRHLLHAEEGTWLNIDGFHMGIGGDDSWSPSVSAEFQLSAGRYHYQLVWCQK

Structure (SMILES): COc1cc(/C=C/c2ccc3cccc(O)c3n2)cc(OC)c1OC
- EC50 (BJ [1]): 2.96 µM (inconclusive)
- EC50 (Beta-galactosidase): > 40 µM (inactive)
- EC50 [2]: 2.28 µM (active)
- EC50 [3]: 1.5 µM (active)
- EC50 (Streptokinase A): > 150 µM (not active)
- IC50 [4]: > 80 µM (inactive)
- EC50 (BJ [5]): 1.2 µM (inconclusive)
- AC50 [6]: 9.5 µM (active)
- EC50 (Streptococcus): 15.6 µM (active)
- EC50 (BJ [7]): 47.8 µM (inconclusive)
- EC50 (BJ [8]): 1.26 µM (active)
- IC50 [9]: 6.2 µM (active)

Structure (SMILES): O=C(NCCN1CCC2(CC1)C(=O)NCN2c1cccc(F)c1)c1ccc2c(c1)C(=O)OC2=O
- IC50 (Phospholipase D1): 5.55 µM (active)
- IC50 (Phospholipase D2): 265 nM (active)
